Source: patent US12577522B2, “System and method for screening therapeutic agents” (Carnegie Mellon University, priority 2020, dated 2026)

Assays:
[1] = test system: MDA-MB-231 human breast cancer cell line mouse xenografts (tumor fragments); experiment: 2D 96-well plate control: tumor fragment drug screening, live/dead viability and COMPUSYN combination index; assay type: cell-based; details: 2D 96-well control, three days, drug refreshed every 12 h
[2] = test system: MDA-MB-231 human breast cancer cell line mouse xenografts (tumor fragments); experiment: 3D ECM microsystem (collagen tumor-on-a-chip): tumor fragment drug screening, live/dead viability and COMPUSYN combination index; assay type: cell-based; details: three days
[3] = Drug gradient characterization in 3D collagen scaffold by confocal microscopy; assay type: physicochemical; details: confocal fluorescence; doxorubicin after 24 h, left to right channel
MDA-MB-231 cell = details: previously reported; cited from earlier work

For `COc1cccc2c1C(=O)c1c(O)c3c(c(O)c1C2=O)C[C@@](O)(C(=O)CO)C[C@@H]3O[C@H]1C[C@H](N)[C@H](O)[C@H](C)O1` [doxorubicin], the “tumor viability (live/dead staining)” value [1] was “dose-dependent decrease in viability”, the “tumor viability (live/dead staining)” value ([2]; 3D ECM microsystem, drug replenished every 12 h) was “dose-dependent decrease in viability” and the “viability in 3D ECM microsystem relative to 2D controls” value ([2]; doses in 2D matched to 48 h simulated concentration) was “lower viability compared to 2D controls”. For the same compound, the “diffusion profile in 3D collagen scaffold” value [3] was “approximately linear concentration profile” and the “median effect dose (Dm)” value (MDA-MB-231 cell) was “much lower than 4-hydroxycyclophosphamide”.
